# Results published in PMC7997032, “Organic synthesis and anti-influenza A virus activity of cyclobakuchiols A, B, C, and D” (PLoS ONE, 2021).
# Values joined by “and” are separate entries in the source; they are usually repeats but may differ in a detail not shown here. Equal entries are not always repeated.
# Key:
# A/PR/8/34 virus [1] = assay: Influenza A viral growth assay (viral titer of culture media); type: cell-based, influenza A H1N1 virus; parameters: viral titer of culture media, individual replicate / viral titer of culture media, ave: unit not given here; settings: A/PR/8/34 (PR8), 12.5uM, average of #1-3 exp (n=9)
# A/WSN/33 virus [2] = assay: as above; type: cell-based, influenza A H1N1 virus; settings: A/WSN/33 (WSN), 12.5uM, average of #1-3 exp (n=9)
# A/PR/8/34 virus [3] = assay: RT-qPCR of viral mRNAs (NP, NS1, PA, PB1, PB2, M2) in infected MDCK cells; type: cell-based, influenza A H1N1 virus
# A/PR/8/34 virus [4] = type: cell-based; settings: 12.5 μM
# [5] = system: canine interferon-β (Ifn-β); assay: RT-qPCR of Ifn-β mRNA in MDCK cells with or without A/PR/8/34 virus; type: cell-based; settings: 12.5uM, relative to virus - DMSO; for MDCK IFN-b mRNA, ave: ave of #1-3 exp; for MDCK IFN-b mRNA, individual replicates: replicates 1-3 of #1, #2, #3 exp, listed as Cyclobakuchiol A
# [6] = system: NAD(P)H quinone oxidoreductase 1 (Nqo1); assay: RT-qPCR of Nqo1 mRNA in MDCK cells with or without A/PR/8/34 virus; type: cell-based, canine; settings: for NQO1 Canis lupus mRNA, ave / NQO1 Canis lupus mRNA, individual replicates: 12.5uM, MDCK, relative to virus - DMSO; for NQO1 Canis lupus mRNA, ave: ave of #1-3 exp; for NQO1 Canis lupus mRNA, individual replicates: replicates 1-3 of #1, #2, #3 exp, listed as Cyclobakuchiol A
# Nrf2 = Nrf2 reporter assay (dual luciferase system) in MDCK cells; type: cell-based, canine
# Procedure: An Nrf2 reporter assay based on the dual luciferase system was performed as previously described. The plasmid pNQO1-ARE (antioxidant response element)-Fluc, provided by Yamamoto M., expressed a Firefly luciferase gene driven by Nrf2 activation, while the plasmid pRL-TK-Rluc vector (Promega, CA, USA) expressed a Renilla luciferase gene driven by the herpes simplex viral thymidine kinase promoter as an internal control. MDCK cells were seeded in a 24-well plate at 1 × 10^5 cells/well and transfected with pNQO1-ARE-luc (0.25 μg) and pRL-TK-Rluc (0.25 μg). At 24 h post-transfection, the cells were treated with 12.5 μM cyclobakuchiols A–D in the infection medium at 37°C under 5% CO2. DMSO (0.125%) and 12.5 μM 1 were used as negative and positive controls, respectively. Total RNA was extracted from the MDCK cell lysates after 24 h of incubation. The levels of Firefly and Renilla luciferase mRNAs were analyzed by RT-qPCR and normalized to that of β-actin mRNA.
# A/PR/8/34 virus [7] = assay: Immunofluorescence staining of viral NP in influenza A virus-infected MDCK cells; settings: for NP/DAPI (%) ave: average of 9 wells
# Procedure: (§1) MDCK cells were seeded on a 96-well plate at 1 × 10^4 cells/well. […] Each mixture was added to the cells at 37°C in the presence of 5% CO2. […] After influenza A viral infection for 24 h, the cells were fixed with 4% paraformaldehyde in phosphate-buffered saline (PBS) for 30 min at 4°C and subsequently permeabilized by the addition of 0.3% Triton X-100 for 20 min at 25°C. A mouse primary antibody was used to detect the NP of A/PR/8/34 or A/WSN/33 viruses (FluA-NP 4F1; SouthernBiotech, AL, USA). Alexa Fluor488-conjugated goat anti-mouse IgG (H + L) antibody (Thermo Fisher Scientific) was used as the secondary antibody. Cell nuclei were then stained using diamidino-2-phenylindole (DAPI) (Thermo Fisher Scientific). Wells were photographed using a fluorescence microscope (BIOREVO BZ-X700; Keyence, Osaka, Japan). The proportion of influenza A NP-positive cells per DAPI-positive cells was calculated based on measurements recorded using BZ-X Analyzer software (Keyence).
# A/WSN/33 virus [8] = assay: as above; settings: WSN
# Procedure: as §1
# [9] = MDCK cells, PR8 virus, relative to DMSO (about 1), ave of #1-3 exp (9 values)
# [10] = MDCK cells, PR8 virus, relative to DMSO, replicates 1-3 of #1, #2, #3 exp, listed as Cyclobakuchiol A
# [11] = 24h WB, average of 3 experiments
# [12] = 24h WB, single experiment, listed as cyclo A
compound,measurement,setting,value
C=C[C@]1(C)CCC(C(=C)C)C(c2ccc(O)cc2)C1 (stereo in doubt) [cyclobakuchiol A],"viral titer of culture media, ave",A/PR/8/34 virus [1]; 12h,31111.1
same,"viral titer of culture media, ave",A/PR/8/34 virus [1]; 48h,28888.9
same,"viral titer of culture media, ave",A/PR/8/34 virus [1]; 72h,20000
same,"viral titer of culture media, ave",A/WSN/33 virus [2]; 12h,10300
same,"viral titer of culture media, ave",A/WSN/33 virus [2]; 24h,22944444
same,"viral titer of culture media, ave",A/WSN/33 virus [2]; 48h,177111111
same,"viral titer of culture media, ave",A/WSN/33 virus [2]; 72h,106555556
same,reduction in the level of NP mRNA compared with 4 and 5,"A/PR/8/34 virus [3]; 12.5 μM, 24 h, Fig 6A",significantly stronger
same,reduction in the level of PB2 mRNA compared with 5,"A/PR/8/34 virus [3]; 12.5 μM, 24 h, Fig 6E",significantly stronger
same,"PR8 NP gene expression qPCR, ave","A/PR/8/34 virus [3]; MDCK PR8, NP mRNA, relative (DMSO about 1), average of #1-3 exp (n=9)",0.01993
same,"PR8 NP gene expression qPCR, individual replicate","A/PR/8/34 virus [3]; MDCK PR8, NP mRNA, relative (DMSO about 1), replicates of #1-3 exp, listed as Cyclobakuchiol A",0.004781 and 0.02173 and 0.01679 and 0.02307 and 0.03646 and 0.02695 and 0.03647 and 0.007215 and 0.005883
same,"PR8 NS1 gene expression qPCR, ave","A/PR/8/34 virus [3]; MDCK PR8, NS1 mRNA, relative (DMSO about 1), average of #1-3 exp (n=9)",0.01311
same,"PR8 NS1 gene expression qPCR, individual replicate","A/PR/8/34 virus [3]; MDCK PR8, NS1 mRNA, relative (DMSO about 1), replicates of #1-3 exp, listed as Cyclobakuchiol A",0.006023 and 0.01703 and 0.01038 and 0.0146 and 0.02282 and 0.01557 and 0.01791 and 0.008546 and 0.005121
same,"PR8 PA gene expression qPCR, ave","A/PR/8/34 virus [3]; MDCK PR8, PA mRNA, relative (DMSO about 1), average of #1-3 exp (n=9)",0.01493
same,"PR8 PA gene expression qPCR, individual replicate","A/PR/8/34 virus [3]; MDCK PR8, PA mRNA, relative (DMSO about 1), replicates of #1-3 exp, listed as Cyclobakuchiol A",0.007746 and 0.01438 and 0.00964 and 0.01502 and 0.02904 and 0.01721 and 0.0228 and 0.01256 and 0.005972
same,"PR8 M2 gene expression qPCR, ave",A/PR/8/34 virus [3]; [9],0.01356
same,"PR8 PB1 gene expression qPCR, ave",A/PR/8/34 virus [3]; [9],0.01089
same,"PR8 PB2 gene expression qPCR, ave",A/PR/8/34 virus [3]; [9],0.01486
same,"PR8 M2 gene expression qPCR, individual replicates",A/PR/8/34 virus [3]; [10],0.006283 and 0.01574 and 0.01119 and 0.01541 and 0.02852 and 0.01303 and 0.01716 and 0.01044 and 0.004303
same,"PR8 PB1 gene expression qPCR, individual replicates",A/PR/8/34 virus [3]; [10],0.005833 and 0.007225 and 0.006699 and 0.007236 and 0.02285 and 0.01622 and 0.02095 and 0.006264 and 0.00475
same,"PR8 PB2 gene expression qPCR, individual replicates",A/PR/8/34 virus [3]; [10],0.006621 and 0.01468 and 0.01232 and 0.01635 and 0.03014 and 0.01618 and 0.02349 and 0.009706 and 0.004275
same,NP/b-actin ave,A/PR/8/34 virus [4]; [11],0.4278
same,NS1/b-actin ave,A/PR/8/34 virus [4]; [11],0.4825
same,"NP mean (western blot signal intensity, ImageJ)",A/PR/8/34 virus [4]; [12],46.861 and 57.758 and 73.552
same,NP/b-actin,A/PR/8/34 virus [4]; [12],0.5523 and 0.2997 and 0.4315
same,NS1/b-actin,A/PR/8/34 virus [4]; [12],0.4154 and 0.4658 and 0.5663
same,"NS1 mean (western blot signal intensity, ImageJ)",A/PR/8/34 virus [4]; [12],72.823 and 75.793 and 55.326
same,expression level of NP protein compared with the 4 or 5 treatment groups,"A/PR/8/34 virus [4]; 24 h post-infection, Fig 7C",significantly reduced
same,"MDCK IFN-b mRNA, ave",[5]; virus +,3.338
same,"MDCK IFN-b mRNA, individual replicates",[5]; virus +,0.977 and 7.49 and 3.1238 and 7.575 and 1.945 and 2.0516 and 3.014 and 1.296 and 2.57
same,"MDCK IFN-b mRNA, ave",[5]; virus -,4.43
same,"MDCK IFN-b mRNA, individual replicates",[5]; virus -,0.3432 and 9.774 and 14.2997 and 12.0611 and 0.902 and 0.6358 and 0.8443 and 0.4235 and 0.5869
same,relative mRNA level of Nqo1 compared with 4- and 5-treated cells,[6],significantly higher
same,"NQO1 Canis lupus mRNA, ave",[6]; virus + (PR8),1.589
same,"NQO1 Canis lupus mRNA, individual replicates",[6]; virus + (PR8),2.006 and 1.48 and 1.365 and 1.506 and 1.318 and 1.456 and 1.551 and 1.721 and 1.896
same,"NQO1 Canis lupus mRNA, ave",[6]; virus -,1.2966
same,"NQO1 Canis lupus mRNA, individual replicates",[6]; virus -,1.091 and 1.486 and 1.24 and 1.353 and 1.444 and 1.092 and 1.099 and 1.4686 and 1.396
same,relative mRNA level of Nqo1 compared with DMSO,"[6]; without A/PR/8/34 virus, 12.5 μM, 24 h",significantly upregulated
same,Nrf2 activation (reporter assay) in contrast to DMSO,"Nrf2; 12.5 μM, 24 h, MDCK cells",induced
same,"pNQO1-ARE-Luc NRF2 reporter assay, ave","Nrf2; 12.5uM, relative to DMSO trans+, ave of #1-3 exp",1.46
same,"pNQO1-ARE-Luc NRF2 reporter assay, individual replicates","Nrf2; 12.5uM, relative to DMSO trans+, two values each of #1, #2, #3 exp, listed as Cyclobakuchiol A",1.665 and 1.021 and 1.596 and 1.77 and 1.598 and 1.113
same,percentage of influenza A NP-positive cells relative to DMSO,"A/PR/8/34 virus [7]; A/PR/8/34, 3.1 μM, 24 h, Fig 4B",significantly reduced
same,NP/DAPI (%) ave,"A/PR/8/34 virus [7]; A/PR/8/34, 3.13 uM",4.608%
same,NP/DAPI (%) ave,"A/PR/8/34 virus [7]; A/PR/8/34, 6.25 uM",1.65%
same,NP/DAPI (%) ave,"A/PR/8/34 virus [7]; A/PR/8/34, 12.5 uM",1.121%
same,NP (NP-positive cell count),"A/PR/8/34 virus [7]; A/PR/8/34, 12.5 uM, single well, listed as Cyclobaku. A",4 and 2 and 3
same,NP/DAPI (%) ave,"A/PR/8/34 virus [7]; A/PR/8/34, 25 uM",0.8303%
same,NP/DAPI (%),"A/PR/8/34 virus [7]; A/PR/8/34, 25 uM, single well, listed as Cyclobaku. A",2.804% and 0.7843% and 0.5666% and 0.5181% and 1.085% and 0.489% and 0.3145% and 0.3937%
same,IC50,"A/PR/8/34 virus [7]; Influenza A virus, PR/8, MDCK, read-out: half maximal (50%) inhibitory concentration (IC50)",1.7 ± 0.8 µM
same,NP/DAPI (%) ave,"A/WSN/33 virus [8]; 3.13uM, ave of 9 values (3 exp)",33.269%
same,NP/DAPI (%) ave,"A/WSN/33 virus [8]; 6.25uM, ave of 9 values (3 exp)",28.3611%
same,NP/DAPI (%) ave,"A/WSN/33 virus [8]; 12.5uM, ave of 9 values (3 exp)",27.0591%
same,NP/DAPI (%) ave,"A/WSN/33 virus [8]; 25uM, ave of 9 values (3 exp)",29.2459%
same,NP/DAPI (%) ave,"A/WSN/33 virus [8]; ave summary, 3.13%",33.269%
same,NP/DAPI (%) ave,"A/WSN/33 virus [8]; ave summary, 6.25%",28.3611%
same,NP/DAPI (%) ave,"A/WSN/33 virus [8]; ave summary, 12.50%",27.0591%
same,NP/DAPI (%) ave,"A/WSN/33 virus [8]; ave summary, 25%",29.2459%
